# Experimental data from ChEMBL document CHEMBL1126528, “Synthesis and biological evaluation of a series of HIV-1 protease inhibitors” (Bioorg Med Chem Lett, 1993).
# Legend:
# MT2 = experiment: Concentration required for anti-viral activity (Anti-HIV-IIIB activity) against human T lymphoid (MT-2) cells that are infected with HIV-IIIB virus; type: functional, cell-based
# [1] = molecular target: Human immunodeficiency virus type 1 protease (Human immunodeficiency virus 1, UniProt Q72874); experiment: Concentration required for inhibitory activity against HIV-1 Protease
Compound,IC50 (MT2) [nM],IC50 [1] [nM]
CC(C)(C)NC(=O)[C@@H]1C[C@@H]2CCCC[C@@H]2CN1C[C@@H](O)[C@H](Cc1ccccc1)NC(=O)[C@H](CC(N)=O)NC(=O)c1ccc2ccccc2n1,3,
CC[C@H](C)[C@H](NC(=O)[C@H](Cc1ccccc1)C[C@@H](O)CN1C[C@H]2CCCC[C@H]2C[C@H]1C(=O)NC(C)(C)C)C(=O)NCc1nc2ccccc2[nH]1,21,30
CC[C@H](C)[C@H](NC(=O)[C@H](Cc1ccccc1)CC(O)CN1CCC[C@@H]1C(=O)N[C@H](C(=O)OC(C)(C)C)[C@@H](C)CC)C(=O)NCc1nc2ccccc2[nH]1 (some centres undefined),> 1750,> 1400
CC[C@H](C)[C@H](NC(=O)[C@H](Cc1ccccc1)CC(O)CN1CCC[C@@H]1C(=O)NC(C)(C)C)C(=O)NCc1nc2ccccc2[nH]1 (some centres undefined),490,80
CC[C@H](C)[C@H](NC(=O)[C@H](Cc1ccccc1)CC(O)(CO)CN1C[C@H]2CCCC[C@H]2C[C@H]1C(=O)NC(C)(C)C)C(=O)NCc1nc2ccccc2[nH]1 (some centres undefined),280,
CC[C@H](C)[C@H](NC(=O)[C@H](Cc1ccccc1)CC(O)CN1C[C@H]2CCCC[C@H]2C[C@H]1C(=O)NC(C)(C)C)C(=O)OC (some centres undefined),> 1750,
CC(C)(C)NC(=O)[C@@H]1C[C@@H]2CCCC[C@@H]2CN1CC(O)C[C@@H](Cc1ccccc1)C(=O)N[C@H]1CCCC[C@@H]1NC(=O)c1ccc2ccccc2n1 (some centres undefined),3600,70
CC[C@H](C)[C@H](NC(=O)[C@H](Cc1ccccc1)CC(O)(CO)CN(CC(=O)NC(C)(C)C)CC1CCCCC1)C(=O)NCc1nc2ccccc2[nH]1 (some centres undefined),> 1750,140
CC[C@H](C)[C@H](NC(=O)[C@H](Cc1ccccc1)CC(O)CN1CCCCC1C(=O)NC(C)(C)C)C(=O)NCc1nc2ccccc2[nH]1 (some centres undefined),480,30
CC(C)(C)NC(=O)[C@@H]1C[C@@H]2CCCC[C@@H]2CN1CC(O)C[C@@H](Cc1ccccc1)C(=O)N[C@H]1CCCC[C@@H]1NC(=O)c1cc2ccccc2cn1 (some centres undefined),1750,70
CC[C@H](C)[C@H](NC(=O)[C@H](CC(C)C)CC(O)CN1C[C@H]2CCCC[C@H]2C[C@H]1C(=O)NC(C)(C)C)C(=O)NCc1nc2ccccc2[nH]1 (some centres undefined),31,30
CC[C@H](C)[C@H](NC(=O)[C@H](Cc1ccccc1)CC(O)CN1C[C@H]2CCCC[C@H]2C[C@H]1C(=O)NC(C)(C)C)C(=O)NCCc1nc2ccccc2[nH]1 (some centres undefined),850,130
CN(CC(O)C[C@@H](Cc1ccccc1)C(=O)N[C@H]1CCCC[C@@H]1NC(=O)c1ccc2ccccc2n1)[C@@H](CC1CCCCC1)C(=O)NC(C)(C)C (some centres undefined),> 1750,> 1400
CC[C@H](C)[C@H](NC(=O)[C@H](Cc1ccccc1)CC(O)CN1CCCCC1C(=O)NC(C)(C)C)C(=O)NCc1ccccn1 (some centres undefined),> 1750,250
CC[C@H](C)[C@H](NC(=O)[C@H](Cc1ccccc1)CC(O)CN1C[C@H]2CCCC[C@H]2C[C@H]1C(=O)NC(C)(C)C)C(=O)NCc1ccccn1 (some centres undefined),310,150
"CC[C@H](C)[C@H](NC(=O)[C@H](Cc1ccccc1)CC(O)CN1C[C@H]2CCCC[C@H]2C[C@H]1C(=O)NC(C)(C)C)C(=O)NCc1nc2ccccc2[nH]1 (single isomer, unassigned)",29,30
